# Laboratory results reported in publication PMC2770896, “Inhibition of Neuraminidase Inhibitor-Resistant Influenza Virus by DAS181, a Novel Sialidase Fusion Protein” (PLoS ONE, 2009).
# Read-outs that look alike come from different tables or passages of the source.
# Legend:
# [1] = molecular target: NA enzymatic activity of A/New Jersey/15/2007 (Influenza A virus (H1N1), UniProt D5F1R0, H275Y); assay type: biochemical, IFV A (H1N1); conditions: for R/S: A/New Jersey/15/2007, NI assay
# [2] = test system: A/Victoria/3/75 (H3N2) with A28T(HA) and R292K(NA) mutations; conditions: cited from earlier work
# [3] = molecular target: NA enzymatic activity of A/Georgia/20/2006 H274Y (Influenza A virus (H1N1), UniProt B1AGS8); experiment: biochemical; assay type: biochemical
# [4] = molecular target: NA enzymatic activity of A/St.Louis/758/09 (Influenza A virus, UniProt D0FH51, S5N); experiment: biochemical; assay type: biochemical, IFV A (H1N1); conditions: for R/S: NI assay
SMILES,R/S [1],"IC50 ([1]; A/New Jersey/15/2007 reference virus, mean of triplicate analysis)",Resistance [2],R/S [3],IC50 ([3]; read-out: IC50),R/S ([4]; A/St.Louis/758/09),"IC50 ([4]; A/St.Louis/758/09, mean of triplicate analysis, read-out: IC50)",IC50 [3],IC50 [4]
"CCC(CC)O[C@@H]1C=C(C(=O)O)C[C@H](N)[C@H]1NC(C)=O [oseltamivir, oseltamivir carboxylate]",R,124 nM,3230 fold,R,192 nM,R,88.4 nM,–,–
CC(=O)N[C@H]1[C@H]([C@H](O)[C@H](O)CO)OC(C(=O)O)=C[C@@H]1N=C(N)N [zanamivir],S,–,60 fold,S,–,S,–,0.57 nM,0.34 nM
